Patent publication US7892764B2, “System for seizure suppression” (priority 2006, dated 2011)

Columns and labels:
[1] = system: cultured mouse hippocampal neurons; test: Cell culture model of epilepsy: kynurenic acid (Kyn) withdrawal-induced seizure-like activity, current-clamp recording; assay type: cell-based
Source text: We hypothesized that ASICs are involved in seizure propagation. Using the Furshpan and Potter cell culture model of epilepsy (Meller et al., 2003; Furshpan et al., 1998), we tested ASIC blockade in mouse hippocampal neurons cultured with the glutamate antagonist kynurenate (Kyn) and elevated Mg^2+. In the presence of Kyn, the majority of hippocampal neurons remained quiescent. […] Without amiloride, Kyn withdrawal-induced sustained depolarization of 39.5±2.1 mV and paroxysmal bursts at 4.0±0.5 Hz. With 30 μM amiloride, membrane depolarization was reduced to 28.6±2.7 mV (p<0.05, n=5) and burst activity reduced to 2.5±0.4 Hz (p<0.01, FIGS. 3C and 3D). Similarly, application of PcTX1 reduced membrane depolarization from 30.2±3.7 mV to 10.7±1.8 mV (n=8, p<0.01) and burst activity from 5.5±0.6 Hz to 1.2±0.3 Hz (n=9, p<0.01, FIGS. 3C, 3D, and 4).
Cell culture model of epilepsy. Long term cell culture model of epilepsy was performed as described (Furshpan et al., 1989; Meller et al., 2003). Briefly, hippocampal neurons prepared from 1-2 day-old C57BL/6 mice cultured in Neurobasal-A/B27 media supplemented with 10 mM Kyn and 5 mM MgCl2. Culture media was replenished with fresh kynurenic acid/Mg^2+ every 3 days. Cells were used for patch-clamp recording after 3 to 4 weeks. Following the formation of a tight seal in a whole-cell configuration, neurons were current-clamped at ˜−60 mV. In the presence of Kyn, the majority of hippocampal neurons remained quiescent. […] The spontaneous electrical behavior of the culture has many of the characteristics of seizure activity in an intact cortex. This system allows seizure-related cellular mechanisms to be studied in long-term cell culture.
Patch clamp techniques. Whole-cell voltage-clamp and current-clamp recordings were performed as described in our previous studies (Xiong et al., 2004). Patch electrodes were constructed from thin-welled borosilicate glass (1.5 mm diameter, WPI, Sarasota, Fla., USA) on a two-stage puller (PP83 Narishige, Tokyo). The resistances of patch electrodes were 1.5-3 MΩ when filled with the intracellular solution (see below). Whole-cell currents were recorded using Axopatch 200B amplifiers with pCLAMP software (Axon Instruments, CA, USA). Data were filtered at 2 kHz and digitized at 5 kHz using Digidata 1322 (Axon Instruments). During each experiment, a voltage step of −10 mV was applied periodically to monitor the cell capacitance and the access resistance. A multi-barrel perfusion system (SF-77, Warner Instrument Co., Conn., USA) was employed to achieve a rapid exchange of solutions. All experiments were performed at room temperature (22-24° C.).

mouse hippocampal slices = test: Stimulus train-induced after-discharges in hippocampal slices; assay type: cell-based
Protocol: ASIC blockade on seizure-like bursting activity induced by high frequency stimulus trains, e.g., after-discharges (Stasheff et al., 1985), was determined as high frequency electric stimulation generates epileptic bursting without disrupting the balance of excitation versus inhibition thus more closely mimicking epileptogenesis in vivo (Stasheff et al., 1985). Following approximately five trains of stimulation, relatively stable after-discharges were recorded (FIGS. 7A-7E). Amiloride bath perfusion reduced after-discharge duration by about 80% (from 21.0±3.5 sec to 4.7±2.4 sec, n=3; p<0.05) and burst firing frequency by about 90% (from 2.8±0.4 Hz to 0.3±0.1 Hz, n=3, p<0.05, FIG. 7A). Similarly, PcTX1 reduced after-discharge duration from 29.3±8.5 to 11.5±4.1 sec (reduced to 0.44±0.10 of control, n=4, p<0.05) and burst firing frequency from 0.9±0.1 to 0.5±0.2 Hz (reduced to 0.5±0.1 of control, n=4, p<0.05, FIG. 7B). Similar to ASIC1a blockade, seizure activity was attenuated in hippocampal slices from ASIC1^−/− mice (Xiong et al., 2004) (FIGS. 7C-7E). In wild-type (WT) mice, five sets of stimulus trains generated bursting activity with a duration of 13.9±2.0 sec and a firing frequency of 1.6±0.2 Hz, whereas in slices from ASIC1^−/− mice, identical stimulations generated after-discharges of only 5.8±3.3 sec duration and 0.4±0.2 Hz frequency (n=9 for both groups, p<0.05 for difference in duration and p<0.01 for frequency, FIG. 7E).
Preparation of hippocampal slices and brain slice recording. Hippocampal slices were obtained from 8- to 10-week-old mice. The protocol for brain-slice recording was approved by the Institutional Animal Care and Use Committee of Legacy Research. Animals were deeply anesthetized with isoflurane and decapitated. Brains were quickly removed and placed in ice-cold solution that contained: 125 mM sucrose, 2.5 mM KCl, 26 mM NaHCO3, 1.25 mM NaHPO4, 6.0 mM […], 0.5 mM CaCl2, and 10 mM glucose, and was saturated with 95% O2 and 5% CO2 (pH 7.4). Hippocamnpal slices were cut in 400 μm thickness in transverse plane with a vibratome (Leica VT 1000S) and placed in a slice holding chamber (BSC-PC Prechamber, Warner Instrument) and incubated in normal artificial cerebral spinal fluid (aCSF) that contained: 125 mM NaCl, 2.5 mM KCl, 26 mM NaHCO3, 1.25 mM […], 1.0 mM MgSO4, 2.0 mM CaCl2, and 10 mM glucose, and was saturated with 95% O2 and 5% CO2 (pH 7.4).
Following ˜60 min of incubation at room temperature, individual slices were transferred to a submerged slice chamber with a volume of 0.5 mL (Warner Instruments, Hamden, Conn.) and perfused with oxygenated aCSF (35° C.) at a rate of 3-4 mL/min. Recording electrodes were pulled from borosilicate glass and filled with aCSF. The population spike and the field excitatory postsynaptic potentials (fEPSP) were recorded in stratum pyramidale and striatum radiatum of hippocampal CA1 region, by stimulating Schaffer Collaterals.
For low Mg^2+ induced epileptic burst activity, Mg^2+-free aCSF was perfused to the slices for ˜30 min. For stimulus-train induced bursting discharges (STIB), each stimulation train consisted of 120 pulses at 60 Hz and each pulse was 100 μsec in duration (Stasheff et al., 1985). A 10-minute interval of non-stimulation was provided between successive trains of high frequency stimulation. Stimulation electrodes were located in striatum radiatum between CA1 and CA3 region. The population spikes were recorded from striatum pyramidale of the CA3 region.

[2] = 30 μM amiloride, perfused 2 min before and during Kyn withdrawal
[3] = 100 μM amiloride bath perfusion
[4] = PcTX1 (venom 200 ng/mL total protein per FIG. 4 legend)

| Compound | Kyn withdrawal-induced paroxysmal burst activity (frequency) [1, 2] | Kyn withdrawal-induced sustained membrane depolarization [1, 2] | after-discharge duration (mouse hippocampal slices; [3]) | burst firing frequency (mouse hippocampal slices; [3]) | reduction of after-discharge duration (mouse hippocampal slices; [3]) | reduction of burst firing frequency (mouse hippocampal slices; [3]) | Kyn withdrawal-induced burst activity (frequency) [1, 4] | Kyn withdrawal-induced membrane depolarization [1, 4] | after-discharge duration (mouse hippocampal slices; 200 ng/mL PcTX1) | after-discharge duration relative to control (mouse hippocampal slices; 200 ng/mL PcTX1) | burst firing frequency (mouse hippocampal slices; 200 ng/mL PcTX1) | burst firing frequency relative to control (mouse hippocampal slices; 200 ng/mL PcTX1) |
| --- | --- | --- | --- | --- | --- | --- | --- | --- | --- | --- | --- | --- |
| NC(N)=NC(=O)c1nc(Cl)c(N)nc1N [amiloride, 3,5-diamino-6-chloro-N(diaminomethylidene)pyrazine-2-carboxamide] | 2.5±0.4 Hz | 28.6±2.7 mV | 4.7 ± 2.4 s | 0.3±0.1 Hz | about 80% | about 90% | – | – | – | – | – | – |
| Psalmotoxin 1 [PcTX1] | – | – | – | – | – | – | 1.2±0.3 Hz | 10.7±1.8 mV | 11.5 ± 4.1 s | 0.44±0.10 of control | 0.5±0.2 Hz | 0.5±0.1 of control |
